Measurements published in patent US9204630B2, “Capsule formulation” (Syngenta Participations AG, priority 2005, dated 2015).

test: Screen of EC formulations for substances that photoprotect emamectin benzoate; type: physicochemical; parameters: key: #1 represents no improvement; #3 represents those photoprotectants that conferred a significant improvement in photostability; details: performance of the photostabiliser relative to the non-photostabilised EC; 2% w/w emamectin benzoate EC, photoprotectant to insecticide 1:1; deposits on glass irradiated in Suntest, HPLC-MS
Procedure: The photoprotectant to be screened was either dissolved or dispersed in a simple Solvesso 200 based EC formulation containing 2% w/w emamectin benzoate, 10% w/w Soprophor BSU and 3% w/w phenyl sulfonate calx. The weight ratio of photoprotectant to insecticide was 1:1.
The ECs were diluted in water to the typical field application rate of emamectin benzoate, 10 g ai/ha at a spray volume of 200 l/ha. 2 μl droplets were applied to clean glass microscope slides and allowed to dry prior to being irradiated in an Atlas XLS+ Suntest artificial sunlight simulator, which employs a filtered xenon light source providing a spectral energy distribution similar to natural outdoor exposure. After irradiation, deposits were removed from the glass slides by a solvent wash and quantified by high performance liquid chromatography (HPLC) with mass-spectrometric (MS) detection.

Molecule	Screen Result
1-[[4-[(dimethylphenyl)azo]dimethylphenyl]azo]-2-naphthalenol [Example 1I]	3
Nc1c(S(=O)(=O)[O-])cc(Nc2ccccc2)c2c1C(=O)c1ccccc1C2=O.[Na+] [Example 1A, monosodium 1-amino-9,10-dihydro-9,10-dioxo-4-(phenylamino)-2-anthracenesulfonate]	3
CC(C)Nc1ccc(NC(C)C)c2c1C(=O)c1ccccc1C2=O [Example 1B, 1,4-bis[(1-methylethyl)amino]-9,10-anthracenedione]	3
Cc1cc(S(=O)(=O)[O-])ccc1N=Nc1c(O)ccc2ccccc12.[Na+] [Example 1C, monosodium 4-[(2-hydroxy-1-naphthalenyl)azo]-3-methyl-benzenesulfonate]	3
O=[N+]([O-])c1ccc(N=Nc2ccc(Nc3ccccc3)cc2)cc1 [Example 1D, 4-[(4-nitrophenyl)azo]-N-phenyl-benzenamine]	3
Oc1ccc(N=Nc2ccc(N=Nc3ccccc3)c3ccccc23)cc1 [Example 1E, 4-[[4-(phenylazo)-1-naphthalenyl]azo]-phenol]	3
CCN(CCC#N)c1ccc(N=Nc2ccc([N+](=O)[O-])cc2)cc1 [Example 1F, 3-[ethyl[4-[(4-nitrophenyl)azo]phenyl]amino]-propanenitrile]	3
Nc1ccc(N=Nc2ccc([N+](=O)[O-])cc2)cc1 [Example 1G, 4-[(4-nitrophenyl)azo]-benzenamine]	3
Cc1ccccc1N=Nc1cc(C)c(N=Nc2c(O)ccc3ccccc23)cc1C [Example 1H, 1-[[2,5-dimethyl-4-[(2-methylphenol)azo]phenyl]azo]-2-naphthalenol]	3
Cc1ccccc1N=Nc1c(O)ccc2ccccc12 [Example 1J, 1-(ortho-tolylazo)-2-naphthol]	3
Oc1ccc2ccccc2c1N=Nc1ccc(N=Nc2ccccc2)cc1 [Example 1K]	3
CC1(C)Nc2cccc3c(N=Nc4ccc(N=Nc5ccccc5)c5ccccc45)ccc(c23)N1 [Example 1M, 2,3-dihydro-2,2-dimethyl-6-[[4-(phenylazo)-1-naphthalenyl]azo]-1H-perimidine]	3
Oc1ccc2ccccc2c1N=Nc1ccccc1 [Example 1N, 1-(phenylazo)-2-naphthalenol]	3
Cc1cc(N=Nc2ccc(N=Nc3c(O)ccc4ccccc34)c(C)c2)ccc1O [Example 1O, 1-[[2-methyl-4-[(2-methylphenol)azo]phenyl]azo]-2-naphthalenol]	3
COc1ccc(C=C(C(=O)OC2CC(C)(C)N(C)C(C)(C)C2)C(=O)OC2CC(C)(C)N(C)C(C)(C)C2)cc1 [Example 1R, propanedioic acid, [(4-methoxy-phenyl)-methylene]-, bis(1,2,2,6,6-pentamethyl-4-piperidinyl)ester]	3
CC(C)(C)CC(C)(C)c1ccc([O-])c(Sc2cc(C(C)(C)CC(C)(C)C)ccc2[O-])c1.CCCCN.[Ni+2] [Example 1S, 2,2′-thiobis[4-t-octylphenolato]-beta-butylamine nickel (II)]	3
